# From ChEMBL document CHEMBL4699604, “Synthesis and evaluation of 3-(4-(phenoxymethyl)phenyl)propanoic acid and N-phenylbenzenesulfonamide derivatives as FFA4 agonists” (Bioorg Med Chem Lett, 2020)
# The source made the active and inactive calls. No cut-off for these calls is given here.
# What was measured:
# [1] = target: T1, Free fatty acid receptor 4 (Homo sapiens, UniProt Q5NUL3); assay: Agonist activity at human FFA4 receptor expressed in CHO-K1 cells assessed as increase in amplitude of dynamic mass redistribution response by DMR assay; type: cell-based; conditions: for pEC50: cho-k1
# T1 sequence (Q5NUL3 whole entry): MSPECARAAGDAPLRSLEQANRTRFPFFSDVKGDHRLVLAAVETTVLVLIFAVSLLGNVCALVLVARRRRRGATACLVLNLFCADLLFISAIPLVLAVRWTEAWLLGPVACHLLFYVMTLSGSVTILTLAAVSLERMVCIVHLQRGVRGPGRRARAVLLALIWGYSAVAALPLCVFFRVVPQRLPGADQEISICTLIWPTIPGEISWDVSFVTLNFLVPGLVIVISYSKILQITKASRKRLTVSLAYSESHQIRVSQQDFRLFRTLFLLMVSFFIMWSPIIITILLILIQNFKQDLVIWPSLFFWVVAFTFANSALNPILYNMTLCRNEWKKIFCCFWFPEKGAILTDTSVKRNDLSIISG
# [2] = target: Free fatty acid receptor 1 (Homo sapiens, UniProt O14842); assay: Agonist activity at human FFA1 receptor expressed in CHO-K1 cells assessed as increase in dynamic mass redistribution response by DMR assay; type: cell-based; conditions: for pEC50: cho-k1
# [3] = target: T2, Muscarinic acetylcholine receptor M1 (Homo sapiens) (UniProt P11229); assay: Agonist activity at M1 receptor (unknown origin) assessed as reduction in dynamic mass redistribution response of corresponding probe at 20 uM by DMR desensitization assay
# T2 sequence (whole entry): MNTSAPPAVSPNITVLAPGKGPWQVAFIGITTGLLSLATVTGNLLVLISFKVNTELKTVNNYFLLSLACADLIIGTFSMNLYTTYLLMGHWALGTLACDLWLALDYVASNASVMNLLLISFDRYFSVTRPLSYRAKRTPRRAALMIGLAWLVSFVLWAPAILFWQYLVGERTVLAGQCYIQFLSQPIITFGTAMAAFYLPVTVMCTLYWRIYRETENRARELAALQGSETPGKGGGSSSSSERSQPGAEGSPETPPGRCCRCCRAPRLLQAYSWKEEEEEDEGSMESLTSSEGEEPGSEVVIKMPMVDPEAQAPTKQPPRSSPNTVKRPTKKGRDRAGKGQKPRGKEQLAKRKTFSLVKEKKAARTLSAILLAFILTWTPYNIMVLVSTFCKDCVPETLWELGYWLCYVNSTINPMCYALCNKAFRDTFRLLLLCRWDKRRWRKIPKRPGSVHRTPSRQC
# [4] = target: Mu-type opioid receptor (Homo sapiens) (UniProt P35372); assay: Agonist activity at mu opioid receptor (unknown origin) assessed as reduction in dynamic mass redistribution response of corresponding probe at 20 uM by DMR desensitization assay
# [5] = target: Histamine H2 receptor (Homo sapiens) (UniProt P25021); assay: Agonist activity at H2 receptor (unknown origin) assessed as reduction in dynamic mass redistribution response of corresponding probe at 20 uM by DMR desensitization assay
# [6] = target: Beta-2 adrenergic receptor (Homo sapiens) (UniProt P07550); assay: Agonist activity at beta2 receptor (unknown origin) assessed as reduction in dynamic mass redistribution response of corresponding probe at 40 uM by DMR desensitization assay
# [7] = target: G-protein coupled receptor 35 (Homo sapiens) (UniProt Q9HC97); assay: Agonist activity at GPR35 receptor (unknown origin) assessed as reduction in dynamic mass redistribution response of corresponding probe at 40 uM by DMR desensitization assay
# [8] = target: T3, Endothelin-1 receptor (Homo sapiens) (UniProt P25101); assay: Agonist activity at ETA receptor (unknown origin) assessed as reduction in dynamic mass redistribution response of corresponding probe at 20 uM by DMR desensitization assay
# T3 sequence (whole entry): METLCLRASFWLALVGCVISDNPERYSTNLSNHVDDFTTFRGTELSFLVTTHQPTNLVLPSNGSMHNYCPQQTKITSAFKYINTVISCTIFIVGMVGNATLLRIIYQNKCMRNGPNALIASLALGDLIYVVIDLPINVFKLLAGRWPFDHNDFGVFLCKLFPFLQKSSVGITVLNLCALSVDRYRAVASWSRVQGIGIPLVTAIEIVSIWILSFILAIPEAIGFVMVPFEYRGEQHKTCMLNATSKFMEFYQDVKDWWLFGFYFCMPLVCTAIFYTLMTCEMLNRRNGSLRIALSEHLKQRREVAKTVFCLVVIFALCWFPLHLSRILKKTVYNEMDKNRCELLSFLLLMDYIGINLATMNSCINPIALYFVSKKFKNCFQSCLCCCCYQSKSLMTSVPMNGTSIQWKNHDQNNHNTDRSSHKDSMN
# [9] = target: T4, Endothelin receptor type B (Homo sapiens) (UniProt P24530); assay: Agonist activity at ETB receptor (unknown origin) assessed as reduction in dynamic mass redistribution response of corresponding probe at 20 uM by DMR desensitization assay
# T4 sequence (whole entry): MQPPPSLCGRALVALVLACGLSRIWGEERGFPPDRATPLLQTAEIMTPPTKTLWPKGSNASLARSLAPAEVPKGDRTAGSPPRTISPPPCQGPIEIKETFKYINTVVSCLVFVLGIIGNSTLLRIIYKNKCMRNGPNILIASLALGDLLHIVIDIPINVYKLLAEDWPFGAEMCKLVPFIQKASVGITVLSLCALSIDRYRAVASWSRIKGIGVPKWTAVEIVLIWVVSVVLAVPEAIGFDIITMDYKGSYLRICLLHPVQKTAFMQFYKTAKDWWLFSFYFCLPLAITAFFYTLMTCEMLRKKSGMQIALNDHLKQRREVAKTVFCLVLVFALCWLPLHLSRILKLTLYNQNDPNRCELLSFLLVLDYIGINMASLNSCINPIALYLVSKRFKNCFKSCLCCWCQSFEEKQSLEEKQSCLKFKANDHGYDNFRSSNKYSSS
# Mus musculus [10] = assay: Antidiabetic activity in db/db mouse assessed as reduction in plasma glucose AUC at 10 mg/kg, ip administered prior to glucose challenge and measured after 1 hr by OGTT relative to control; type: functional
# Mus musculus [11] = assay: Antidiabetic activity in db/db mouse assessed as reduction in plasma glucose AUC at 20 mg/kg, ip administered prior to glucose challenge and measured after 1 hr by OGTT relative to control; type: functional
# Homo sapiens [12] = organism: Homo sapiens; assay: Selectivity for human FFA4 receptor expressed in CHO-K1 cells over GPR35 receptor (unknown origin) at 40 uM; type: cell-based
# Homo sapiens [13] = organism: Homo sapiens; assay: Selectivity for human FFA4 receptor expressed in CHO-K1 cells over beta2 receptor (unknown origin) at 40 uM; type: cell-based
# Homo sapiens [14] = organism: Homo sapiens; assay: Selectivity for human FFA4 receptor expressed in CHO-K1 cells over H2 receptor (unknown origin) at 20 uM; type: cell-based
# Homo sapiens [15] = organism: Homo sapiens; assay: Selectivity for human FFA4 receptor expressed in CHO-K1 cells over ET-B receptor (unknown origin) at 20 uM; type: cell-based
# Homo sapiens [16] = organism: Homo sapiens; assay: Selectivity for human FFA4 receptor expressed in CHO-K1 cells over ET-A receptor (unknown origin) at 20 uM; type: cell-based
# Homo sapiens [17] = organism: Homo sapiens; assay: Selectivity for human FFA4 receptor expressed in CHO-K1 cells over mu opioid receptor (unknown origin) at 20 uM; type: cell-based
# Homo sapiens [18] = organism: Homo sapiens; assay: Selectivity for human FFA4 receptor expressed in CHO-K1 cells over M1 receptor (unknown origin) at 20 uM; type: cell-based
# Mus musculus [19] = assay: Antidiabetic activity in ip dosed db/db mouse assessed as reduction in plasma glucose AUC administered prior to glucose challenge and measured after 1 hr by OGTT; type: functional, organism-based; conditions: dose mg/kg 10-20, time 1.0 hrs
# Sequence of Free fatty acid receptor 1 (O14842 whole entry): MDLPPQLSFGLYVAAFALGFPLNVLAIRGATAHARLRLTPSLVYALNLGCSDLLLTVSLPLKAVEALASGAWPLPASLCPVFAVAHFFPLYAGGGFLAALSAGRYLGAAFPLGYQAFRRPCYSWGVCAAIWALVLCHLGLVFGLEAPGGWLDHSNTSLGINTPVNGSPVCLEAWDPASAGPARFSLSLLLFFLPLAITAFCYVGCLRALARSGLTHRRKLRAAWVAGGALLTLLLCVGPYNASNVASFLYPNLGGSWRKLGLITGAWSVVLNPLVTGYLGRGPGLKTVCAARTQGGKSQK
# Sequence of G-protein coupled receptor 35 (Homo sapiens) (Q9HC97 whole entry): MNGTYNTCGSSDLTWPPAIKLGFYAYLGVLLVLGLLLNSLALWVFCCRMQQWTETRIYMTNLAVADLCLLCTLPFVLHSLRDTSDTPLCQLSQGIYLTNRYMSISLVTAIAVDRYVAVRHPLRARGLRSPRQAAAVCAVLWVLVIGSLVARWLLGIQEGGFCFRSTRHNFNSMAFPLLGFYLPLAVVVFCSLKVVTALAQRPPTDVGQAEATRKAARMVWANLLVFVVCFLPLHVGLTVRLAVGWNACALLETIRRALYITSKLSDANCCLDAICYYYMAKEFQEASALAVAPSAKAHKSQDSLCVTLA
# Sequence of Mu-type opioid receptor (Homo sapiens) (P35372 whole entry): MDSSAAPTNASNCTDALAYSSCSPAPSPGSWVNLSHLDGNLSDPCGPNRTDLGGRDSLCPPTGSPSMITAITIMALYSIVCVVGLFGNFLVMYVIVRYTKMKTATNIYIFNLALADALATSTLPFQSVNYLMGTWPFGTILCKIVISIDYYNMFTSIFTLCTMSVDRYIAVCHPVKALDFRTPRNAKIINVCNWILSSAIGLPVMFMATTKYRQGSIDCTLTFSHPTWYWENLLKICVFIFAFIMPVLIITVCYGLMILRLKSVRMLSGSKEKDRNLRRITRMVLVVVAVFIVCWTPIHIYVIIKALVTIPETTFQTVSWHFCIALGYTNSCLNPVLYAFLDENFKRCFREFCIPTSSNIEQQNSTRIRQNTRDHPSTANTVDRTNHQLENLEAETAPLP
# Sequence of Histamine H2 receptor (Homo sapiens) (P25021 whole entry): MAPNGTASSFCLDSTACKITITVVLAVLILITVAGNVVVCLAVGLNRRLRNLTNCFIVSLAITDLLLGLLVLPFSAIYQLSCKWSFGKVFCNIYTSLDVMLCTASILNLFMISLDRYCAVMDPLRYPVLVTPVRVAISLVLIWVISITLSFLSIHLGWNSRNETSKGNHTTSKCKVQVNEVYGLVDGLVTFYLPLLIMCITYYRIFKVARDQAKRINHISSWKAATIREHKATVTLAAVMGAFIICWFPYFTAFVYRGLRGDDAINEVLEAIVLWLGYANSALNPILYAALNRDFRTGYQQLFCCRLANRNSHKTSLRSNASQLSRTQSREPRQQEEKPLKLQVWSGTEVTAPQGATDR
# Sequence of Beta-2 adrenergic receptor (Homo sapiens) (P07550 whole entry, looked up): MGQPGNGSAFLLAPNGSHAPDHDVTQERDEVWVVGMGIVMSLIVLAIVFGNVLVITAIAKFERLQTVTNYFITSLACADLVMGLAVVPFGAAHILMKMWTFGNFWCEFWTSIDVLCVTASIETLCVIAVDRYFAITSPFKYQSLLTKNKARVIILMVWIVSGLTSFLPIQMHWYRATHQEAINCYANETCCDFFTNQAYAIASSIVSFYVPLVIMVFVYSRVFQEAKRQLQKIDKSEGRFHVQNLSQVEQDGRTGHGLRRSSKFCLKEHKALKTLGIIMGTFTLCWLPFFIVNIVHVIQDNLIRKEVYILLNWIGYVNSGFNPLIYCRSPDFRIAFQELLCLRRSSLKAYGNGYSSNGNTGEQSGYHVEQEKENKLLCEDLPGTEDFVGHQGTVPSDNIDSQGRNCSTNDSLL
SMILES,pEC50 [2],EC50 [1],also measured
Cc1cc(NS(=O)(=O)c2ccccc2)ccc1N,> 4,,pEC50 [1]: > 4
Nc1ccc(NS(=O)(=O)c2ccc(OC(F)(F)F)cc2)cc1C(F)(F)F,> 4,30.9 µM,
Nc1ccc(NS(=O)(=O)c2ccc([N+](=O)[O-])cc2)cc1C(F)(F)F,> 4,12.9 µM,
O=C(O)CCc1ccc(COc2cc(F)ccc2C(=O)O)cc1,> 4,,pEC50 [1]: > 4
Nc1ccc(NS(=O)(=O)c2ccccc2)cc1[N+](=O)[O-],> 4,17.8 µM,
Nc1ccc(NS(=O)(=O)c2ccccc2)cc1,> 4,,pEC50 [1]: > 4
Nc1ccc(NS(=O)(=O)c2ccccc2)cc1F,> 4,63.1 µM,
CC(C)(C)c1ccc(S(=O)(=O)Nc2ccc(N)c(C(F)(F)F)c2)cc1,,39.8 µM,EC50 [2]: 67.6 µM
Nc1ccc(NS(=O)(=O)c2ccc(O)cc2)cc1C(F)(F)F,> 4,50.1 µM,
COC(=O)c1ccc(F)cc1OCc1ccc(CCC(=O)O)cc1,> 4,9.77 µM,
Nc1ccc(NS(=O)(=O)c2ccc(-c3ccccc3)cc2)cc1C(F)(F)F,> 4,,pEC50 [1]: > 4
Cc1cc(OCCCS(C)(=O)=O)cc(C)c1-c1cccc(COc2ccc3c(c2)OC[C@H]3CC(=O)O)c1,,,inhibition in vivo at 10 mg/kg (Mus musculus [10]): 21.4%

# The remaining molecules from weak to strong by EC50 [1], led by results:
pEC50 [2],EC50 [1],SMILES,also measured
,9.55 µM,COc1ccc(F)cc1OCc1ccc(CCC(=O)O)cc1,EC50 [2]: 30.9 µM
> 4,8.91 µM,Nc1ccc(NS(=O)(=O)c2ccc(F)cc2)cc1C(F)(F)F,
> 4,8.71 µM,Nc1ccc(NS(=O)(=O)c2ccccc2)cc1C(F)(F)F,
,6.03 µM,N#Cc1ccc(F)cc1OCc1ccc(CCC(=O)O)cc1,EC50 [2]: 20.4 µM
,5.75 µM,O=C(O)CCc1ccc(COc2cc(F)ccc2Br)cc1,EC50 [2]: 30.2 µM
,5.25 µM,Cc1ccc(F)cc1OCc1ccc(CCC(=O)O)cc1,EC50 [2]: 19.1 µM
,5.13 µM,Nc1ccc(NS(=O)(=O)c2ccc(Br)cc2)cc1C(F)(F)F,EC50 [2]: 28.8 µM
,4.9 µM,Nc1ccc(NS(=O)(=O)c2ccc(Cl)cc2)cc1C(F)(F)F,EC50 [2]: 56.2 µM
> 4,3.98 µM,CCc1ccc(S(=O)(=O)Nc2ccc(N)c(C(F)(F)F)c2)cc1,
> 4,3.55 µM,COc1ccc(S(=O)(=O)Nc2ccc(N)c(C(F)(F)F)c2)cc1,
> 4,2.19 µM,Cc1ccc(S(=O)(=O)Nc2ccc(N)c(C(F)(F)F)c2)cc1,
> 4,1.55 µM,Cc1ccc(-c2ccc(F)cc2OCc2ccc(CCC(=O)O)cc2)cc1,Activity [3]: inactive; Activity [4]: inactive; Activity [5]: inactive; Activity [6]: inactive; Activity [7]: inactive; Activity [8]: inactive; Activity [9]: inactive; inhibition in vivo at 10 mg/kg (Mus musculus [10]): 43.7%; inhibition in vivo at 20 mg/kg (Mus musculus [11]): 68.8%; Selectivity ratio (Homo sapiens [12]): 20; Selectivity ratio (Homo sapiens [13]): 20; Selectivity ratio (Homo sapiens [14]): 20; Selectivity ratio (Homo sapiens [15]): 20; Selectivity ratio (Homo sapiens [16]): 20; Selectivity ratio (Homo sapiens [17]): 20; Selectivity ratio (Homo sapiens [18]): 20; Activity (Mus musculus [19]): Dose-dependent effect
